Experimental data from the supplement of paper PMC11451515.

System: P12-Ichikawa
Assay: cell viability relative to DMSO control; higher = less cytotoxic
Settings: 48 h
How it was run: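 Viability is expressed as a percentage of DMSO wells within each plate, and cell-free wells serve as background. Seeding densities in the 1536-well plates (5 μl) were 500 cells/well for NOMO1 or SEM leukemia cells and 1000 cells/well for P12-Ichikawa. Each line was adapted for at least four passages in each medium. Library compounds in DMSO were pin-dosed at 47 μM to 0.79 nM (11 points, threefold), and CellTiter-Glo One luminescence was read after 48 h at 37°C.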

[1] = RPMI 5 mM glucose + 10% FBS, 0.000781 µM
[2] = RPMI 5 mM glucose + 10% FBS, 0.00234 µM
[3] = RPMI 5 mM glucose + 10% FBS, 0.00702 µM
[4] = RPMI 5 mM glucose + 10% FBS, 0.0211 µM
[5] = RPMI 5 mM glucose + 10% FBS, 0.0632 µM
[6] = RPMI 5 mM glucose + 10% FBS, 0.19 µM
[7] = RPMI 5 mM glucose + 10% FBS, 0.569 µM
[8] = RPMI 5 mM glucose + 10% FBS, 1.71 µM
[9] = RPMI 5 mM glucose + 10% FBS, 5.12 µM
[10] = RPMI 5 mM glucose + 10% FBS, 15.4 µM
[11] = RPMI 5 mM glucose + 10% FBS, 46.1 µM
[12] = RPMI 5 mM glucose + 10% dialyzed FBS, 0.000781 µM
[13] = RPMI 5 mM glucose + 10% dialyzed FBS, 0.00234 µM
[14] = RPMI 5 mM glucose + 10% dialyzed FBS, 0.00702 µM
[15] = RPMI 5 mM glucose + 10% dialyzed FBS, 0.0211 µM
[16] = RPMI 5 mM glucose + 10% dialyzed FBS, 0.0632 µM
[17] = RPMI 5 mM glucose + 10% dialyzed FBS, 0.19 µM
[18] = RPMI 5 mM glucose + 10% dialyzed FBS, 0.569 µM
[19] = RPMI 5 mM glucose + 10% dialyzed FBS, 1.71 µM
[20] = RPMI 5 mM glucose + 10% dialyzed FBS, 5.12 µM
[21] = RPMI 5 mM glucose + 10% dialyzed FBS, 15.4 µM
[22] = RPMI 5 mM glucose + 10% dialyzed FBS, 46.1 µM

| SMILES | cell viability (HPLM + 10% dialyzed FBS, 0.000781 µM) [%] | cell viability (HPLM + 10% dialyzed FBS, 0.00234 µM) [%] | cell viability (HPLM + 10% dialyzed FBS, 0.00702 µM) [%] | cell viability (HPLM + 10% dialyzed FBS, 0.0211 µM) [%] | cell viability (HPLM + 10% dialyzed FBS, 0.0632 µM) [%] | cell viability (HPLM + 10% dialyzed FBS, 0.19 µM) [%] | cell viability (HPLM + 10% dialyzed FBS, 0.569 µM) [%] | cell viability (HPLM + 10% dialyzed FBS, 1.71 µM) [%] | cell viability (HPLM + 10% dialyzed FBS, 5.12 µM) [%] | cell viability (HPLM + 10% dialyzed FBS, 15.4 µM) [%] | cell viability (HPLM + 10% dialyzed FBS, 46.1 µM) [%] | cell viability [1] [%] | cell viability [2] [%] | cell viability [3] [%] | cell viability [4] [%] | cell viability [5] [%] | cell viability [6] [%] | cell viability [7] [%] | cell viability [8] [%] | cell viability [9] [%] | cell viability [10] [%] | cell viability [11] [%] | cell viability [12] [%] | cell viability [13] [%] | cell viability [14] [%] | cell viability [15] [%] | cell viability [16] [%] | cell viability [17] [%] | cell viability [18] [%] | cell viability [19] [%] | cell viability [20] [%] | cell viability [21] [%] | cell viability [22] [%] |
| --- | --- | --- | --- | --- | --- | --- | --- | --- | --- | --- | --- | --- | --- | --- | --- | --- | --- | --- | --- | --- | --- | --- | --- | --- | --- | --- | --- | --- | --- | --- | --- | --- | --- |
| CCCC1OC2C[C@H]3[C@@H]4CCC5=CC(=O)C=C[C@]5(C)[C@H]4C(O)C[C@]3(C)[C@]2(C(=O)CO)O1 (stereo not given in full) | 114 | 120 | 109 | 95.8 | 79 | 68.7 | 67.3 | 64 | 64.9 | 60 | 49 | 116 | 114 | 99.1 | 90 | 70.6 | 57.8 | 57.6 | 50.1 | 51.2 | 51.3 | 39.7 | 116 | 108 | 90.4 | 76.7 | 60 | 47.5 | 44.1 | 43 | 42 | 37.5 | 28.4 |
| CC(C)C[C@H](NC(=O)[C@@H](O)[C@H](N)Cc1ccccc1)C(=O)O |  |  |  |  |  |  |  |  |  |  |  |  |  |  |  |  |  |  |  |  |  |  | 116 | 130 | 124 | 130 | 130 | 111 | 120 | 115 | 123 | 104 | 32 |
| NC(=O)OCC(COC(N)=O)c1ccccc1 |  |  |  |  |  |  |  |  |  |  |  | 118 | 123 | 120 | 118 | 126 | 113 | 136 | 115 | 116 | 113 | 108 |  |  |  |  |  |  |  |  |  |  |  |
